Laboratory results as given in paper PMC10182447 (BioImpacts : BI, 2022).

Biological target: Human serum albumin (HSA) (Homo sapiens, UniProt P02768)
Experiment: fluorescence quenching titration
Assay type: binding

Sequence of Human serum albumin (HSA) (P02768 25-609): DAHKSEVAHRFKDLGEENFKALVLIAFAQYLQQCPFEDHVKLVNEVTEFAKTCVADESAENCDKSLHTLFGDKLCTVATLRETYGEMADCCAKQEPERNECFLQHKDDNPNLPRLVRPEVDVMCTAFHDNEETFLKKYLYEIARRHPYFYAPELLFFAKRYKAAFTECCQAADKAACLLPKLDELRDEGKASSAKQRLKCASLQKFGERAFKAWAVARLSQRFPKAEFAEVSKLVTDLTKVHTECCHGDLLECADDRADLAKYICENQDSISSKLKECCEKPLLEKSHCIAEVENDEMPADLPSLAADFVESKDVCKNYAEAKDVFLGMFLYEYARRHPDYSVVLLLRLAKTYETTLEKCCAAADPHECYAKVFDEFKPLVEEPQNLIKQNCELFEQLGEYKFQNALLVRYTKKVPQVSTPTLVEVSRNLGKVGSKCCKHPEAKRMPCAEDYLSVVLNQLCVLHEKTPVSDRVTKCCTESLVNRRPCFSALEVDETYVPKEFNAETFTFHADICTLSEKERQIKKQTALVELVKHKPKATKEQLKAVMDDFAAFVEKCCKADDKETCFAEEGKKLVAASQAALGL

A Kd of 235 µM was found for `CCCCCCCCc1ccc(CCC(N)(CO)CO)cc1` [Fingolimod] in this work.
